In patent US8410137B2, “Thiophene-2-carboxamide derivatives, preparation thereof and therapeutic use thereof” (Sanofi, priority 2008, dated 2013):

Assays:
[1] = molecular target: T1, CB1 receptors present in the brain (Mus musculus, UniProt P47746); test: Measurement (2): ex vivo [3H]-CP55940 binding assay in mouse brain after intravenous administration; settings: iv at 10 mg/kg, read-out: % of inhibition of the binding of [3H]-CP55940 with regard to the CB1 receptors present in the brain
T1 construct: from tissue; host or cells: whole animal (brain CB1 receptors, in vivo)

[2] = Measurement (1): quantification of unchanged compound in mouse brain samples by LC-MS/MS, brain/plasma ratio; format: in vivo; settings: iv at 3 mg/kg, read-out: Ratio: amount present in the brain/amount present in the plasma
Description: The low penetration of the compounds of formula (I) at the haematoencephalic barrier (HEB) was evaluated in vivo by: • Measurement (1): the quantification of the compounds of formula (I) (unchanged) in mouse brain samples after intravenous (iv, 3 mg/kg) or oral administration, using the LC-MS/MS analytical technique. • The

[3] = molecular target: T1, CB1 receptors present in the brain; test: Measurement (3): blocking of the hypothermic effect induced by CP55940; format: in vivo; settings: iv at 10 mg/kg

T1 sequence (P47746 whole entry): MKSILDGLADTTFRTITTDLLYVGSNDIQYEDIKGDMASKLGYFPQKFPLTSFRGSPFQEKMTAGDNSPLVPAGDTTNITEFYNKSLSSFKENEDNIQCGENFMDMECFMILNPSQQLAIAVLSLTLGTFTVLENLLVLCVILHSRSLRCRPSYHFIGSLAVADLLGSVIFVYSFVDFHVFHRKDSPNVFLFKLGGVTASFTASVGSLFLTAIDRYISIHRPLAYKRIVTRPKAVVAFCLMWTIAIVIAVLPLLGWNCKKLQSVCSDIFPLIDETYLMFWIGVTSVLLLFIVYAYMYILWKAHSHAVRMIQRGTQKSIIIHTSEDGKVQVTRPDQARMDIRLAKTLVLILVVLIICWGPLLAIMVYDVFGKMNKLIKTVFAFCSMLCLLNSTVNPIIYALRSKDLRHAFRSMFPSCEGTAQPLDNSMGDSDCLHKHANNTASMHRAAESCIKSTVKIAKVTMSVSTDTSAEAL

Structure (SMILES)	inhibition at 10 mg/kg [1]	Kp [2]	% of reversion of the hypothermic effect of CP55940 with regard to the CB1 receptors present in the brain [3]
NC(=O)C1(c2ccccc2)CCN(C(=O)c2cc(-c3ccc(OCCCO)cc3)c(-c3ccc(Cl)cc3Cl)s2)CC1 [compound 8, 1-({5-(2,4-dichlorophenyl)-4-[4-(3-hydroxypropoxy)phenyl]-2-thienyl}carbonyl)-4-phenylpiperidine-4-carboxamide]	13%	0.04	17.5%
NC(=O)C1(c2ccccc2)CCN(C(=O)c2cc(-c3ccc(OCCCO)cc3)c(-c3ccccc3Cl)s2)CC1 [compound 45, 1-({5-(2-chlorophenyl)-4-[4-(3-hydroxypropoxy)phenyl]thien-2-yl}carbonyl)-4-phenylpiperidine-4-carboxamide]	32%		35.5%
